# Data: US20110124617A1, “Combination Therapy for BreastCancer Comprising an Antiestrogenic Agent” (priority 2008, published 2011)
# Key:
# hot flashes = experiment: alleviation of hot flashes in a postmenopausal breast cancer patient treated with tamoxifen citrate; format: in vivo, human; conditions: postmenopausal patient on tamoxifen citrate (20 mg tamoxifen free base)
# Procedure: A postmenopausal patient is being treated in the adjuvant setting for breast cancer with the SERM tamoxifen citrate (dosage of 20 mg tamoxifen free base). They are experiencing hot flashes as a result of their treatment.
# rat uterus = conditions: cited from earlier work; for estrogenic stimulation on the rat uterus: compound alone
SMILES,alleviation of hot flashes (hot flashes; 20 mg once daily),alleviation of hot flashes (hot flashes; dosage adjusted to 50 mg),estrogenic stimulation on the rat uterus (rat uterus),antagonism of the estrogenic effect of estradiol on the uterus (rat uterus; with estradiol)
CCNCCc1ccc(CN(CC)c2cc(OC)ccc2[C@@H]2CCc3cc(O)ccc3C2)cc1 [compound of formula I],partial alleviation of their symptoms,almost complete alleviation of their hot flushes,no estrogenic stimulation,could antagonize the estrogenic effect of estradiol on the uterus and bring it back to control levels
"O=C(c1ccc(OCCN2CCCCC2)cc1)c1c(-c2ccc(O)cc2)sc2cc(O)ccc12 [raloxifene, reference compound]",,,did stimulate the uterus,
"CC/C(=C(\c1ccccc1)c1ccc(OCCN(C)C)cc1)c1ccccc1 [tamoxifen, reference compound]",,,did stimulate the uterus,
